Results published in article PMC10393279, “Can BioSAXS detect ultrastructural changes of antifungal compounds in Candida albicans?–an exploratory study” (Frontiers in Pharmacology, 2023).
Like-named read-outs stand apart in the source and are kept apart here. No end group written: not given here.

Tests used:
erythrocytes = tested on: erythrocytes; design: method as in 3 sources, one per row (each row's own in cited_ref): ref Cerovsky et al., 2009 ||| ref Cao et al., 2012; Almaaytah and Albalas, 2014 ||| ref Hirai et al., 1981; details: cited from earlier work
C. albicans [1] = assay: microbe, parasite or virus in culture; assay type: cell-based, Candida albicans; details: broth microdilution, 30°C
Procedure: In this project, we used a clinical isolate of C. albicans obtained from Tim Planche (St. George’s, University of London).
Mueller-Hinton broth (MHb) (Merck, Life Science UK Limited, Dorset, UK) was prepared to concur with the manufacturer’s directions and supplemented with 2% glucose to grow C. albicans. Liquid cultures were incubated at 30°C for 18–20 h on a shaker, and culture on solid media was incubated for 18–24 h at 30°C.
When it comes to determining the antimicrobial activity of antimicrobial peptides (AMPs) there are unfortunately many different approaches reported. Many AMPs are negatively affected by positively charged ions and other components of growth media, therefore Mueller-Hinton broth (MHb) is frequently used since it supports the growth of many organisms and seems to interfere little with the activity of most AMPs. The […] of Flucytosine and antifungal peptides were determined using a protocol (option E) of the highly cited publication by [Wiegand et al. (2008)] optimized for the work with antimicrobial peptides. This protocol uses MHb (0.2% beef extract, 1.75% casein hydrolysate). To adopt that media for the growth of yeast 2% glucose was added. For comparison, YPD complex medium (1% yeast extract, 2% peptone, 2% dextrose) is often used for the growth of yeast. Where this media provides the best activity for antimicrobial peptides the results should be carefully used when comparing MIC values to other antifungals measured in different growth media. A broth microdilution assay was applied using 6 × 10^5 CFU/mL at 30°C. MICs were determined by the unaided eye, as the concentration in which no growth was observed.

sheep erythrocytes = details: ref Andreu et al., 1992, Edlund et al., 1998; cited from earlier work
human erythrocytes = details: no method in this paper, ref Grimsey et al., 2020; cited from earlier work
C. albicans [2] = assay: BioSAXS ultrastructural changes, principal component analysis of scattering curves; assay type: cell-based, Candida albicans; details: 2xMIC, 40 min
Procedure: A detailed description of the sample preparation for BioSAXS, the BioSAXS measurement and consequently the data evaluation methods can be found in the open-source publication by [Von Gundlach et al. (2019)]. Briefly, an aliquot of an overnight culture of a clinical isolate of C. albicans was diluted in Mueller-Hinton broth (MHb) and incubated for 2.5 h at 30°C on a shaker (225 rpm) to achieve log phase growth. The C. albicans culture was adjusted to have 1.2 × 10^6 CFU/mL and aliquoted. The aliquots were then mixed with either sterile water or antifungal solution (2xMIC) to provide 6 × 10^5 CFU/mL aliquots. Those were further incubated for 40 min at 30°C at 225 rpm. All aliquots were then centrifuged at 10,000 rpm and washed 3 times in ml 0.1 M PIPES [piperazine-N,N′-bis(2-ethanesulfonic acid)] buffer, pH 7.0. After washing, the pellet was resuspended in 1 mL of 2.5% glutaraldehyde v/v in PIPES buffer and fixated for 1 h at room temperature at 225 rpm. Consequently, the samples were washed 3 times with PBS buffer and resuspended in 100 µL of PBS and stored at 5°C.
The SAXS measurements were performed on the P12 BioSAXS beamline, EMBL (DESY, Hamburg), using a double crystal Si (111) monochromator. An energy of 10 keV with a 10^13 s^−1 photon flux was used. 30 μL of each sample was injected into the measuring chamber by an automatic sample robot (Arinax, BioSAXS), the focus of the X-ray beam was 0.2 × 0.12 mm. The scattering signal was recorded with a Pilatus 2 M detector (Dectris, Switzerland). For each sample, 20 measurements were made with 0.05 s exposure. Before and after each measurement the background was measured and automatically subtracted from the SAXS curves. Data analysis and evaluation were done using the open-source software SciXMiner (“Peptide Extension”) ([Mikut, 2010]; [Mikut et al., 2017]). To determine differences in the scattering curves between treated and untreated samples as well as between the different treatments a principal component analysis (PCA) was applied to the scattering curves. The data are measurements of about 100,000 cells that were measured 20 times to obtain the scattering curves. SAXS curves were averaged and the standard deviation was used as an error bar. The PCA analysis was carried out in the frequency range between 0.05–0.4 nm^−1, and errors were propagated from the single SAXS curves (see Supplementary Figure S1).

[3] = Mueller-Hinton broth + 2% glucose, 6 × 10^5 CFU/ml C. albicans clinical isolate, read by unaided eye, n = 3, modal values
[4] = 6 × 10^5 CFU/mL, PCA range 0.05–0.4 nm^−1

VNWKKILGKIIKVVK-NH2 [Lasioglossin LL-III]
hemolytic and cytotoxic activity (erythrocytes; ref Cerovsky et al., 2009): low | MIC (C. albicans [1]; [3]): 36 µM

KWKLFKKIGAVLKVL-NH2
hemolytic activity (sheep erythrocytes): > 500 µg/mL | MIC (C. albicans [1]; [3]): 18 µM

FIGAIARLLSKIFGKR-NH2 [Bmkn2]
HC50 (hemolysis) (erythrocytes; ref Cao et al., 2012, Almaaytah and Albalas, 2014): 17.13 µg/mL | MIC (C. albicans [1]; [3]): 18 µM

KRRVRWIIW-NH2 [OptP7]
HC50 (hemolysis) (human erythrocytes): > 250 µg/mL | MIC (C. albicans [1]; [3]): 24 µM

Nc1[nH]c(=O)ncc1F [Flucytosine]
MIC (C. albicans [1]; Candida albicans, MHb + 2% glucose, 6 × 10^5 CFU/mL C. albicans clinical isolate, read-out: MIC): 8 µg/mL | PC1 value, rank in the set of six antifungal compounds (C. albicans [2]): second-lowest | PC2 value compared to the untreated cells (direction) (C. albicans [2]): increased | PC2 value, rank in the set of six antifungal compounds (C. albicans [2]): highest | ΔPC1 (treated versus untreated), sign (C. albicans [2]): positive | increase of PC2 versus untreated sample (C. albicans [2]; [4]): about 1 unit | reduction of PC1 versus untreated sample (C. albicans [2]; [4]): about 6 units

INLKAIAALAKKLL-NH2 [Mastoparan M]
hemolytic activity (erythrocytes; ref Hirai et al., 1981): very little | MIC (C. albicans [1]; [3]): 22 µM
